Assay [1] relates to Human breast cancer cells T47D (H1047R). As to the kind of experiment: Cell proliferation inhibition assay (CTG), T47D (H1047R). The settings on record: Homo sapiens, 72 h, 3 days incubation, CTG readout. Type of assay: cell-based. The procedure:
(§1) Cell Proliferation Inhibition Assay
(§2) 1. Experimental Materials
(§3) II. Experimental Protocol
(§4) • a) Cell suspension was prepared; • b) The medium was removed from the culture flask; • c) The cells were rinsed once with PBS; • d) Trypsin was added for digestion, and the cells were centrifuged and collected; • e) The cells were resuspended in medium, counted and adjusted to an appropriate concentration; • f) 100 µL of cell suspension was added to each well of a 96-well plate. One plate was used for each cell line, which was incubated overnight in a 37 °C, 5% CO2 incubator.
(§5) 2. Treatment of Compounds
(§6) • a) Serial dilutions of the test compounds were prepared: The compound was prepared as a 10 mM stock solution. 18 µL of the stock solution was dissolved in 982 µL of the culture medium containing DMSO, followed by 4-fold serial dilutions in culture medium containing 0.5% DMSO to give 9 concentrations. The concentrations of the diluted compound were as follows: 180000 nM, 45000 nM, 11250 nM, 2812.5 nM, 703.13 nM, 175.78 nM, 43.95 nM, 10.99 nM, and 2.75 nM. • b) After thorough mixing, 20 µL of each compound solution was added to the cell plate containing 100 µL of cells per well. Each concentration was tested in triplicate. Final concentrations of the compound were as follows: 30000 nM, 7500 nM, 1875 nM, 468.75 nM, 117.188 nM, 29.30 nM, 7.32 nM, 1.83 nM, and 0.46 nM. • c) The cells were transferred into the incubator and incubated for 3 days.
(§7) The cell plate was removed, 25 µL of CTG reagent was added to each well of the 96-well plate, the mixture was shook on a plate shaker at room temperature for 10 minutes, and the plate was read.
(§8) The cell survival rate was calculated using the following formula (% Cell Survival): % Cell Survival = 100% × (OD_Sample−OD_LCave)/(OD_HC−OD_LCave) [formula] • OD_HC: Reading of the 0.1‰ DMSO control group • OD_Sample: Reading of cells treated with compound • OD_LCave: Reading of blank medium
(§9) Analyzed by Prism: Dose-response-Inhibition - Log (inhibitor) vs response (three parameters for the best fit).

For assay [2], the system named is Human breast cancer cells SK-BR-3 (WT). In words: Cell proliferation inhibition assay (CTG), SK-BR-3 (WT). It counts as cell-based. The settings on record: Homo sapiens, 72 h, SK-BR-3 (WT) cells, 3 days incubation, CTG readout. As to the method: as §1, §2, §3, §4, §5, §6, §7, §8, §9

Molecules are shown by their SMILES.

IC50 data for 39 molecules are collected here from patent EP4772513A1, “PI3K-ALPHA INHIBITOR AND USE THEREOF” (TYK Medicines (Zhengzhou), Inc., priority 2023, dated 2025).

By IC50 is commonly meant the concentration needed to halve the response being measured. The low end stands for greater potency in that assay, the high end for weaker potency in that assay.

As for `Cc1cc([C@@H](C)Nc2ccc(Cl)nc2C(=O)O)c2oc3c(c(=O)c2c1)CCN(S(=O)(=O)C1(C)CC1)C3` [Compound C113], the figures for the IC50 in assay [1] and in assay [2] were not above 0.5 µM and more than 5 µM, respectively.

With `C[C@@H](Nc1ccc(Cl)nc1C(=O)O)c1cc(F)cc2c(=O)c3c(oc12)CN(S(=O)(=O)c1c(F)cccc1F)CC3` [Compound C114], the IC50 in assay [1] was not above 0.5 µM; in assay [2] it was more than 5 µM.

`C[C@@H](Nc1ccc(Cl)nc1C(=O)O)c1cc(F)cc2c(=O)c3c(oc12)CN(S(=O)(=O)c1ccccc1C(F)(F)F)CC3` [Compound C115]: the figures for the half-maximal inhibitory concentration (IC50) in assay [1] and in assay [2] were not above 0.5 µM and more than 5 µM, respectively.

As for `C[C@@H]1COCCN1S(=O)(=O)N1CCc2c(oc3c([C@@H](C)Nc4ccc(Cl)nc4C(=O)O)cc(F)cc3c2=O)C1` [Compound C116], the results for the IC50 in assay [1] and in assay [2] were not above 0.5 µM and more than 5 µM, respectively.

As for `C[C@@H](Nc1ccc(Cl)nc1C(=O)O)c1cc(F)cc2c(=O)c3c(oc12)CN(S(=O)(=O)N1CCOC[C@@H]1C)CC3` [Compound C117], the IC50 in assay [1] was not above 0.5 µM; in assay [2], more than 5 µM.

With `Cc1noc(C)c1S(=O)(=O)N1CCc2c(oc3c([C@@H](C)Nc4ccc(Cl)nc4C(=O)O)cc(F)cc3c2=O)C1` [Compound C118], the IC50 in assay [1] was not above 0.5 µM; in assay [2], more than 5 µM.

Take `C[C@@H](Nc1ccc(Cl)nc1C(=O)O)c1cc(F)cc2c(=O)c3c(oc12)CN(S(=O)(=O)c1cccc2c1CCO2)CC3` [Compound C120]: the IC50 in assay [1] was not above 0.5 µM; in assay [2], more than 5 µM.

Turning to `C[C@@H](Nc1ccc(Cl)nc1C(=O)O)c1cc(F)cc2c(=O)c3c(oc12)CN(S(=O)(=O)N1CCC(F)(F)CC1)CC3` [Compound C121], the IC50 in assay [1] is not above 0.5 µM; in assay [2], more than 5 µM.

On to `C[C@@H]1CN(S(=O)(=O)N2CCc3c(oc4c([C@@H](C)Nc5ccc(Cl)nc5C(=O)O)cc(F)cc4c3=O)C2)CCO1` [Compound C122], for which the IC50 in assay [1] is not above 0.5 µM; in assay [2], more than 5 µM.

For the molecule `C[C@H]1CN(S(=O)(=O)N2CCc3c(oc4c([C@@H](C)Nc5ccc(Cl)nc5C(=O)O)cc(F)cc4c3=O)C2)CCO1` [Compound C123], the IC50 in assay [1] was not above 0.5 µM; in assay [2], more than 5 µM.

Consider `C[C@@H](Nc1ccc(Cl)nc1C(=O)O)c1cc(F)cc2c(=O)c3c(oc12)CN(S(=O)(=O)c1cccc(=O)n1C)CC3` [Compound C124], for which the IC50 in assay [1] was 0.5 to 2 µM; in assay [2], more than 5 µM.

Take `Cc1nn(C)c(C)c1S(=O)(=O)N1CCc2c(oc3c([C@@H](C)Nc4ccc(Cl)nc4C(=O)O)cc(F)cc3c2=O)C1` [Compound C125]: the IC50 in assay [1] was not above 0.5 µM; in assay [2], more than 5 µM.

`Cc1ncn(C)c1S(=O)(=O)N1CCc2c(oc3c([C@@H](C)Nc4ccc(Cl)nc4C(=O)O)cc(F)cc3c2=O)C1` [Compound C126]: the IC50 in assay [1] was 0.5 to 2 µM; in assay [2], more than 5 µM.

Consider `C[C@@H]1CN(S(=O)(=O)N2CCc3c(oc4c([C@@H](C)Nc5ccc(Cl)nc5C(=O)O)cc(F)cc4c3=O)C2)C[C@@H](C)O1` [Compound C127], for which the IC50 in assay [1] was not above 0.5 µM; in assay [2] it was more than 5 µM.

Regarding `Cc1cnn(C)c1S(=O)(=O)N1CCc2c(oc3c([C@@H](C)Nc4ccc(Cl)nc4C(=O)O)cc(F)cc3c2=O)C1` [Compound C128], the 50% inhibitory concentration (IC50) was not above 0.5 µM in assay [1] and more than 5 µM in assay [2].

Consider `C[C@@H](Nc1ccc(Cl)nc1C(=O)O)c1cc(F)cc2c(=O)c3c(oc12)CN(S(=O)(=O)c1cc(F)cc(F)c1F)CC3` [Compound C129], for which the half-inhibitory concentration (IC50) in assay [1] is not above 0.5 µM; in assay [2], more than 5 µM.

For the molecule `C[C@@H](Nc1ccc(Cl)nc1C(=O)O)c1cc(F)cc2c(=O)c3c(oc12)CN(S(=O)(=O)N1CCOC(C)(C)C1)CC3` [Compound C130], the IC50 in assay [1] is not above 0.5 µM; in assay [2] it was more than 5 µM.

On to `C[C@H]1CN(S(=O)(=O)N2CCc3c(oc4c([C@@H](C)Nc5ccc(Cl)nc5C(=O)O)cc(F)cc4c3=O)C2)C[C@H](C)O1` [Compound C132], for which the 50% inhibitory concentration (IC50) in assay [1] is not above 0.5 µM; in assay [2] it was more than 5 µM.

Consider `CC1CN(S(=O)(=O)N2CCc3c(oc4c(C(C)Nc5ccc(Cl)nc5C(=O)O)cc(F)cc4c3=O)C2)CC(C)O1` (stereo not drawn) [Compound C133], for which the IC50 in assay [1] is not above 0.5 µM; in assay [2], more than 5 µM.

Turning to `Cc1nnn(C)c1S(=O)(=O)N1CCc2c(oc3c([C@@H](C)Nc4ccc(Cl)nc4C(=O)O)cc(F)cc3c2=O)C1` [Compound C134], the IC50 is not above 0.5 µM in assay [1] and more than 5 µM in assay [2].

For `C[C@@H](Nc1ccc(Cl)nc1C(=O)O)c1cc(F)cc2c(=O)c3c(oc12)CN(S(=O)(=O)c1c(F)ccc(F)c1F)CC3` [Compound C135], the values for the IC50 in assay [1] and in assay [2] were not above 0.5 µM and more than 5 µM, respectively.

Turning to `C[C@@H](Nc1ccc(Cl)nc1C(=O)O)c1cc(F)cc2c(=O)c3c(oc12)CN(S(=O)(=O)c1cccn2ncc(Cl)c12)CC3` [Compound C137], the IC50 in assay [1] is not above 0.5 µM; in assay [2], more than 5 µM.

On to `C[C@@H](Nc1ccc(Cl)nc1C(=O)O)c1cc(F)cc2c(=O)c3c(oc12)CN(S(=O)(=O)C1=CCOCC1)CC3` [Compound C138], for which the IC50 is not above 0.5 µM in assay [1] and more than 5 µM in assay [2].

Consider `Cc1cc([C@@H](C)Nc2ccccc2C(=O)O)c2oc3c(c(=O)c2c1)CCN(S(=O)(=O)c1c(C)noc1C)C3` [Compound C139], for which the concentration for half-maximal inhibition (IC50) in assay [1] is not above 0.5 µM; in assay [2], more than 5 µM.

In the case of `Cc1noc(C)c1S(=O)(=O)N1CCc2c(oc3c([C@@H](C)Nc4ccccc4C(=O)O)cc(F)cc3c2=O)C1` [Compound C140], the 50% inhibitory concentration (IC50) in assay [1] is not above 0.5 µM; in assay [2] it was more than 5 µM.

As to `C[C@@H](Nc1ccccc1C(=O)O)c1cc(F)cc2c(=O)c3c(oc12)CN(S(=O)(=O)N1CCC(F)(F)CC1)CC3` [Compound C141], the IC50 in assay [1] was 0.5 to 2 µM; in assay [2], more than 5 µM.

With `Cc1cc([C@@H](C)Nc2ccccc2C(=O)O)c2oc3c(c(=O)c2c1)CCN(S(=O)(=O)N1CCOC(C)(C)C1)C3` [Compound C142], the IC50 in assay [1] is not above 0.5 µM; in assay [2], more than 5 µM.

As for `C[C@@H](Nc1ccccc1C(=O)O)c1cc(F)cc2c(=O)c3c(oc12)CN(S(=O)(=O)N1CCOC(C)(C)C1)CC3` [Compound C143], the concentration for half-maximal inhibition (IC50) in assay [1] was not above 0.5 µM; in assay [2], more than 5 µM.

Consider `Cc1cc([C@@H](C)Nc2ccccc2C(=O)O)c2oc3c(c(=O)c2c1)CCN(S(=O)(=O)N1CCO[C@H](C)C1)C3` [Compound C144], for which the figures for the IC50 in assay [1] and in assay [2] were not above 0.5 µM and more than 5 µM, respectively.

Consider `C[C@@H]1CN(S(=O)(=O)N2CCc3c(oc4c([C@@H](C)Nc5ccccc5C(=O)O)cc(F)cc4c3=O)C2)CCO1` [Compound C145], for which the IC50 in assay [1] is not above 0.5 µM; in assay [2] it was more than 5 µM.

Take `C[C@@H](Nc1ccccc1C(=O)O)c1cc(F)cc2c(=O)c3c(oc12)CN(S(=O)(=O)C1CCOCC1)CC3` [Compound C146]: the values for the IC50 in assay [1] and in assay [2] were not above 0.5 µM and more than 5 µM, respectively.

Regarding `Cc1cc([C@@H](C)Nc2ccccc2C(=O)O)c2oc3c(c(=O)c2c1)CCN(S(=O)(=O)N1CCOC2(CC2)C1)C3` [Compound C147], the IC50 in assay [1] was not above 0.5 µM; in assay [2], more than 5 µM.

Take `C[C@@H](Nc1ccccc1C(=O)O)c1cc(F)cc2c(=O)c3c(oc12)CN(S(=O)(=O)N1CCOC2(CC2)C1)CC3` [Compound C148]: the IC50 is not above 0.5 µM in assay [1] and more than 5 µM in assay [2].

On to `Cc1cc([C@@H](C)Nc2ccccc2C(=O)O)c2oc3c(c(=O)c2c1)CCN(S(=O)(=O)c1cccc2c1CCO2)C3` [Compound C149], for which the concentration for half-maximal inhibition (IC50) in assay [1] is not above 0.5 µM; in assay [2], more than 5 µM.

With `C[C@@H](Nc1ccccc1C(=O)O)c1cc(F)cc2c(=O)c3c(oc12)CN(S(=O)(=O)c1cccc2c1CCO2)CC3` [Compound C150], the concentration for half-maximal inhibition (IC50) is not above 0.5 µM in assay [1] and more than 5 µM in assay [2].

With `Cc1cc([C@@H](C)Nc2ccccc2C(=O)O)c2oc3c(c(=O)c2c1)CCN(S(=O)(=O)c1c(Cl)ccc2c1CCO2)C3` [Compound C151], the IC50 in assay [1] is not above 0.5 µM; in assay [2], more than 5 µM.

In the case of `C[C@@H](Nc1ccccc1C(=O)O)c1cc(F)cc2c(=O)c3c(oc12)CN(S(=O)(=O)c1c(Cl)ccc2c1CCO2)CC3` [Compound C152], the results for the IC50 in assay [1] and in assay [2] were not above 0.5 µM and more than 5 µM, respectively.

Turning to `Cc1cc([C@@H](C)Nc2ccccc2C(=O)O)c2oc3c(c(=O)c2c1)CCN(S(=O)(=O)N1CCC(F)(F)CC1)C3` [Compound C153], the IC50 in assay [1] is not above 0.5 µM; in assay [2], more than 5 µM.

On to `Cc1cc([C@@H](C)Nc2ccccc2C(=O)O)c2oc3c(c(=O)c2c1)CCN(S(=O)(=O)N1C[C@@H](C)O[C@H](C)C1)C3` [Compound C154], for which the 50% inhibitory concentration (IC50) in assay [1] is not above 0.5 µM; in assay [2] it was more than 5 µM.
